# Source: patent publication US20140287925A1, “SOLUTIONS OF CIPC AND OF A TERPENE OR OF A TERPENE OIL AND THEIR USES FOR THE ANTIGERMINATIVE TREATMENT OF BULBS OR TUBERS” (priority 2003, published 2014)
# Assays:
# [1] = Solubility of CIPC (maximum concentration obtained in solvents); type: physicochemical; conditions: in terpenes and/or terpene oils, clear solutions, at room temperature or even as low as 0° C.
# Procedure: Moreover, CIPC is sparingly soluble in conventional solvents, and maximum CIPC concentrations of the order of 30% (weight/volume) are generally obtained. At best, concentrations of the order of about 54% at 180° C. have been obtained. This low solubility therefore implies the use of large quantities of solvent and/or of formulation in order to obtain the required quantities of active formula. Now, it is sought in general to limit the use of these solvents because of their own toxicity and/or of the danger involved in using them, in particular because of their low boiling points which cause high risks of inflammability.
# It has now been discovered, and that is one of the subjects of the present invention, that terpenes and/or terpene oils have a high CIPC-dissolving power. In particular, the use of such terpenes and/or terpene oils makes it possible to obtain clear CIPC solutions and to reach CIPC concentrations greater than 50% by weight of CIPC relative to the total volume of the solution, at room temperature, or even temperatures as low as 0° C. Consequently, the formulations of the present invention make it possible to limit the quantity of formulated product to be used.
# [2] = cited from earlier work
compound,measurement,setting,value
"CC(C)OC(=O)Nc1cccc(Cl)c1 [CIPC, isopropyl (3-chlorophenyl)carbamate]",CIPC concentration reached,[1],greater than 50 % by weight of CIPC relative to the total volume of the solution
same,CIPC concentration obtained at best,"[2]; conventional solvents, at 180° C.",about 54%
same,maximum CIPC concentration,[2]; in conventional solvents,~30 % (weight/volume)
